This note sets out measurements from patent US20160355782A1, “METHOD FOR ENHANCING DIFFERENTIATION OF DOPAMINERGIC NEURONS” (Buddhist Tzu Chi Medical Foundation, priority 2015, published 2016).

The test system of test [1] is TH promoter in SH-SY5Y cells. The test can be described thus: TH promoter assay (pTH6.0-GL3 luciferase) in SH-SY5Y cells. Particulars: 24 hours; for elicited TH promoter activity on forced MeCP2 or CoREST expression / elicited TH promoter activity on co-transfection with HDAC1: 1 μM UCN or 1.25 mM SB; for elicited TH promoter activity on co-transfection with HDAC1: pK7-HDAC1 co-transfection. It is filed as cell-based, human. The source says: The luciferase reporter vector pTH6.0-GL3 constructed by engineering the 6.0 kb upstream sequences of the rat TH (TH6.0) gene into pGL3 was kindly provided by Dr. Kwang-Soo Kim (Harvard Medical School, Belmont, Mass.). Vector expressing Nurr1 (mouse) was constructed by inserting the respective cDNA into pAAV-MCS vector (pAAV-Nurr1), in which the cloned gene is designed to be expressed under the control of the cytomegalovirus (CMV) immediate-early promoter. pTH6.0-GL3 alone or combined with pAAV-Nurr1 were transfected into a human neuro-blastoma SH-SY5Y cell line or cortical NPCs, respectively, using Lipofectamine 2000 (Invitrogen) according to the protocol of the manufacturer. For determine the effect of MeCP2-CoREST-HDAC1 repressor complex on TH promoter activity, the SH-SY5Y cells were double transfected with pTH6.0-GL3 and pCMV6-Entry-Mecp2 (Flag-tagged MeCP2)/or pCMV6-Entry-Rcor1 (Flag-tagged CoREST) (both from OriGene Technologies, Rockville, Md.)/or pK7-HDAC1-GFP (Addgene). At 24 h after transfection, cells were treated with 1 μM UCN or 1.25 mM SB for another 24 h. Luciferase activity of cell lysates was determined luminometrically by the luciferase assay system (Promega, Madison, Wis.) as specified by the manufacturer. Luciferase activity was normalized to the protein content of the extracts. Relative luciferase activity was determined to reflect promoter activity of TH, expressed as the fold increase relative to the activity of control or untreated mock control.

A further test deals with rat TH promoter. The test is described as follows: Chromatin immuno-precipitation (ChIP) at the TH promoter in VM precursor cultures. The format is cell-based. On the procedure:
VM precursor cultures were treated with 1 μM UCN for about 1 to 2 days. VM cells for ChIP from rat embryos, the pregnant rats on day 12.5 of gestation were intra-peritoneally injected with saline as control or 10 μg/kg UCN as treatment every 24 h for 3 days before sacrifice. The ventral mesencephalon from E15.5 embryos was dissected. Cells were cross-linked with 1% formaldehyde, and stored at −80° C. before use.
Chromatin immuno-precipitation (ChIP) assays were performed using SimpleChIP® Enzymatic Chromatin IP kit (Cell Signaling Technology, Beverly, Mass.) by the instruction of the kit. Briefly, cross-linked chromatin in the cells was enzymatic digested to generate fragments with a length of approximately 150-900 bp (1 to 5 nucleosomes). The chromatin was subjected to immuno-precipitation using the following antibodies: anti-Nurr1 (Santa Cruz), anti-acetyl histone H3 (Ac-H3), anti-HDAC1, anti-CoREST (all from Upstate Biotechnology), anti-MeCP2 (Chemicon,), anti-Foxa2 (Cell signaling Technology), anti-Pitx3, and IgG (both from Abcam). Immuno-precipitated DNA fragments were collected by protein G magnetic beads. DNA/protein complexes were eluted from the beads and reverse cross-linked at 65° C. for 2 h in the presence of proteinase K. Purified DNA were subjected to real-time PCR using primers specific to rat TH promoter loci (referring to Table 2). The abundance of the immuno-precipitated DNA in a sample was normalized to the amount of signal in the input DNA. The values of the control samples were set to 1.0.

In a further test the test system is VM precursor cultures. The test can be described thus: Immuno-cytochemistry and TH+ cell counting in VM precursor cultures. The format is cell-based, rat. On the procedure:
Briefly, ventral mesencephalic tissues were dissected from E14.5 Sprague-Dawley (SD) rats, and then dissociated enzymatically (0.1% trypsin) and mechanically. Cells were seeded into 24-well (1×10^5/cm^2) culture plates pre-coated with 20 μg/mL poly-D-lysine (Sigma-Aldrich), and were maintained in 0.5 mL/well of minimum essential medium (MEM) supplemented with 10% fetal bovine serum (FBS), 10% horse serum (HS), 1 g/L glucose, 2 mM L-glutamine, 1 mM sodium pyruvate, 100 μM nonessential amino acids, 100 U/mL penicillin, and 100 μg/mL streptomycin (all purchased from Invitrogen). Cultures were maintained at 37° C. in a humidified atmosphere of 5% CO2 and 95% air. For DA neuron differentiation, VM precursor cultures, four hours after seeding, were switched to Dulbecco's Modified Eagle's Medium (DMEM)/Ham's F12 (1:1) containing N2 supplement (Invitrogen, Carlsbad, Calif.), penicillin and streptomycin. Immediately following the switch to DMEM/F12 medium, VM precursor cells were treated with various concentration of rat UCN (from Sigma-Aldrich, St. Louis, Mo.) for the indicated periods. For neutralization of endogenous UCN bioactivity, anti-UCN antibody (15 μg/mL) (Santa Cruz Biotechnology, Santa Cruz, Calif.) was added to the VM precursor cultures.
For immuno-cytochemistry, cells were fixed with 4% paraformaldehyde followed by blocking with PBS containing 0.4% Triton X-100, 3% normal goat serum and 2% bovine serum albumin (BSA) for 1 h at room temperature. After blocking, cells were incubated overnight at room temperature with primary antibodies. Primary antibodies were rabbit anti-UCN (1:200), mouse anti-TH (1:2000) (both from Sigma-Aldrich), goat anti-CRHR1 (1:100), rabbit anti-CRHR2 (1:250), rat anti-dopamine transporter (DAT, 1:200), chicken anti-MAP2 (1:5000) (all from Abcam, Cambridge, Mass.), rabbit anti-Nurr1 (1:100, Santa Cruz Biotechnology), mouse anti-Nurr1 (1:100, R&D Systems, Minneapolis, Minn.), rabbit anti-TH (1:1000), mouse anti-NeuN (1:200) (both from Chemicon, Temecula, Calif.), rabbit anti-acetyl-histone H3 (1:1000, Upstate Biotechnology, Lake Placid, N.Y.), rabbit anti-Foxa2 (1:500, Cell Signaling Technology), and rabbit anti-Pitx3 (1:100, Invitrogen).
For detection of dopaminergic neurons, the bound anti-TH antibody was visualized by incubation with an appropriate biotinylated secondary antibody followed by the Vectastain avidin-biotin-peroxidase (ABC) reagents (Vector Laboratories, Burlingame, Calif.) and color development with 3,3′-diaminobenzidine. The number of TH-positive neurons were counted in the entire surface area of a culture well or coverslip. For fluorescent double-labeling experiments, cells were incubated for 1 h at room temperature with rhodamine-conjugated donkey anti-mouse IgG (1:250), FITC-conjugated goat anti-rabbit IgG (1:250) or FITC-conjugated donkey anti-goat IgG (1:200) secondary antibodies (all from Jackson Immuno Research, West Grove, Pa.). Samples were counter-stained with Hoechst 33342 (5 μg/mL, Sigma-Aldrich) or DAPI (1 μg/mL), and mounted with 50% glycerol in PBS. Microscopic observations were done with a Zeiss Axiovert 200 M fluorescent microscope or a Zeiss LSM 510 META confocal imaging system (Carl Zeiss, Oberkochen, Germany). Immuno-reactive or Hoechst 33342-stained cells were counted in at least 10 random areas of each culture coverslip at a magnification of 100×.

[2] abbreviates: SB, compared with the UCN effect.

`CCCC(=O)[O-].[Na+]` [SB, sodium butyrate, reference compound]: in test [1], the “elicited TH promoter activity on forced MeCP2 or CoREST expression” value is listed as “attenuation” and the “elicited TH promoter activity on co-transfection with HDAC1” value is “significantly attenuated”. Also, the TH promoter activity entry in test [1] (1.25 mM SB) was “increase TH promoter activity”. Moreover, in the test with rat TH promoter (setting [2]), the “Nurr1 recruitment at the TH promoter” value is “mimicked” and the “histone acetylation at the TH promoter” value is recorded as “mimicked”. Moreover, in the test on VM precursor cultures (1.25 mM SB, 3 days), the “% TH+ cells out of total Nurr1+ cells (conversion of Nurr1+ precursors)” value is “increased DA cell numbers was through conversion of Nurr1^+ precursors into DA neurons” and the “cells with TH staining” value is given as “increase in cells with TH staining”.

Turning to Urocortin [UCN], in test [1], the “elicited TH promoter activity on forced MeCP2 or CoREST expression” value is listed as “attenuation” and the “elicited TH promoter activity on co-transfection with HDAC1” value is on record as “significantly attenuated”. The “TH promoter activity (relative luciferase activity)” value in test [1] (1 μM UCN) is on record as “activation of the TH promoter”. Further, the “Nurr1 protein occupancy at the TH promoter” value with rat TH promoter (1 μM UCN, 2 days) was “significantly increased”. In the test with rat TH promoter (UCN), the “CoREST binding in the TH promoter regions” value is listed as “decreased CoREST binding”, the “Foxa2 occupancy at Nurr1 binding sites of TH promoter” value is “increases”, the “HDAC1 recruitment at the TH promoter” value was “significantly reduced” and the “histone H3 acetylation at TH promoter regions” value is recorded as “significantly increased”. In addition, in the test with rat TH promoter (UCN, Nurr1-binding sites and repeated CpGs), the “MeCP2 recruitment to the TH promoter” value is recorded as “significantly reduced”. Also, the “number of TH+ neurons over time” value in the test with VM precursor cultures (1 μM UCN as early as 1 day in vitro vs control medium at 4 days in vitro) is listed as “clearly higher than that of control medium”. For the same compound, in the test on VM precursor cultures (1 μM UCN, 2 to 3 days), the Nurr1-immuno-reactive intensity result is “increased”; the “level of Foxa2 and Pitx3 in Nurr1+ cells” value is “increased level”. The “TH+ cells co-expressing NeuN, MAP2 and DAT” value in the test with VM precursor cultures (1 μM UCN, 4 days, double immuno-staining) is reported as “all the TH^+ cells”. Also, the “number of Nurr1+ cells” value in the test on VM precursor cultures (UCN treated cultures (control 4.91%±0.54%)) is 4.68%±0.4%. For the same compound, the “differentiation of Nurr1+/TH- precursors into Nurr1+/TH+ DA neurons” value in the test with VM precursor cultures (UCN vs control) was “more Nurr1^+ cells develop concomitant TH^+ expression”. The “numbers of TH+ cells” value with VM precursor cultures (increasing doses of UCN, 3 days) is on record as “dose-dependent increase”.
